{"source": "patent US6995159B2", "about": "“5-HT receptor ligands and uses thereof” (Pfizer Inc., priority 2001, dated 2006)", "key": {"human 5HT2c receptor": {"biological_target": "T1, human 5HT2c receptor (Homo sapiens, UniProt P28335)", "T1 construct": "expressed in transfected cells; host or cells: Swiss 3T3 mouse cells", "T1 sequence (P28335 33-458)": "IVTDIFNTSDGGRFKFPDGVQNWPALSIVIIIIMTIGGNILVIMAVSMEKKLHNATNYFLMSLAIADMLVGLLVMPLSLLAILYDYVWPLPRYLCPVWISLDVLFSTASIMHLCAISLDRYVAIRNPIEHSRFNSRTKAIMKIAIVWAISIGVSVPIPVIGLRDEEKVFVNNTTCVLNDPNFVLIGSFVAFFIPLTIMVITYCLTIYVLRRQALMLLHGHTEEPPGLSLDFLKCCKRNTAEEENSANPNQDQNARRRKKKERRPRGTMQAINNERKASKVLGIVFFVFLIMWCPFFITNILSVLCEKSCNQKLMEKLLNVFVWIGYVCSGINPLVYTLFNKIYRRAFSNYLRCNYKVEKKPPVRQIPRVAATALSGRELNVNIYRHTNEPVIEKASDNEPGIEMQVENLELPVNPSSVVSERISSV", "assay": "5HT2c binding procedure (competition binding against 3H-5HT)", "conditions": "Swiss 3T3 mouse cells transfected with human 5HT2c receptor", "procedure": "Affinity of compounds at the serotonin 5HT2c binding site is determined by competition binding in Swiss 3T3 mouse cells (available from the American Type Culture Collection (ATCC), Manassas, Va.) transfected with the human 5HT2c receptor against 3H-5HT. The method is adapted from Roth et al., J. of Pharm. And Exp. Therap., 260(3), 1362–1365 (1992). Cells are grown in DMEM high glucose medium, harvested, homogenized, centrifuged, and resuspended in 50 mM Tris-HCL. They are incubated at 37° C. for 15 minutes, centrifuged, and then resuspended into assay buffer (50 mM Tris-HCl, 4 mM CaCl2, 0.1% ascorbic acid, and 100 μM pargyline at pH 7.7) at 100 volumes per gram. Assay tubes contain 25 μL of 10 nM ^3H-5HT (1 nM final conc.), and 25 μl of vehicle (assay buffer), blank (10 μM mianserin), or test compound (10X final volume). 200 μl of tissue homogenate is added to each tube, vortexed, and incubated for 30 minutes at 37° C. Samples are then rapidly filtered under vacuum with a Skatron™ cell harvester (available from Molecular Devices Corporation, Sunnyvale, Calif.) using GF/B filters presoaked in 0.5% polyethyleneimine (PEI), and washed with 2×5 mL cold 50 mM Tris-HCl. Filter mats are removed and counted in a Wallac Betaplate counter (available from PerkinElmer Life Sciences, Gaithersburg, Md.). Percent inhibition of specific binding by test compounds is used to calculate the Ki, or extrapolate concentration of test compound necessary to inhibit one-half of the total specific binding for each compound."}, "rat 5HT2A receptor": {"biological_target": "T2, rat 5HT2A receptor (Rattus norvegicus, UniProt P14842)", "T2 construct": "expressed in transfected cells; host or cells: NIH 3T3 mouse cells", "T2 sequence (P14842 whole entry)": "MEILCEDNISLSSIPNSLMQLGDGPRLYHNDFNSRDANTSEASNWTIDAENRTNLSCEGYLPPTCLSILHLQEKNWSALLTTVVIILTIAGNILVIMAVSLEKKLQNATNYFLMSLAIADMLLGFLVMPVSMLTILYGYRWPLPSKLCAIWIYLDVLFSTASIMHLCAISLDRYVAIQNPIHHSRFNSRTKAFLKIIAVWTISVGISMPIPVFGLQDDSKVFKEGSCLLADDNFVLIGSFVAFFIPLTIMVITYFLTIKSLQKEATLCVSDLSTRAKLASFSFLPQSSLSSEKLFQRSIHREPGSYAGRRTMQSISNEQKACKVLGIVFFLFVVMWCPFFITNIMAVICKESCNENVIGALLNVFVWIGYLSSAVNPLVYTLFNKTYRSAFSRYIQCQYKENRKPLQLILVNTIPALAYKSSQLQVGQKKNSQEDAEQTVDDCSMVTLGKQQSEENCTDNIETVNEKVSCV", "assay": "5HT2A binding procedure (competition binding using 125I-DOI)", "conditions": "NIH 3T3 mouse cells transfected with rat 5HT2A receptor", "procedure": "Affinity of compounds at the serotonin 5HT2A binding site is determined by competition binding in NIH 3T3 mouse cells transfected with the rat 5HT2A receptor using 1251-DOI. The method was adapted from Leonhardt et al., Molecular Pharmacology, 42, 328–335 (1992). Frozen cell paste is homgenized in 50 mM tris-HCl buffer pH 7.4 containing 2 mM MgCl2 using a Polytron and centrifuged at 45000×g for ten minutes. The resulting pellet is resuspended in fresh ice-cold 50 mM tris-HCl buffer pH 7.4 containing 2 mM MgCl2 using a Polytron™ and centrifuged again at 45000×g for ten minutes. The final pellet is resuspended in 50 mM tris-HCl buffer pH 7.4 containing 2 mM MgCl2 at a concentration of 5 mg/mL. Wells in a 96 well plate contain 25 μL of 0.7 nM 1251-DOI (70 pM final conc.), and 25 μL of vehicle (assay buffer), blank (10 μM cinanserin), or test compound (10× final volume). […] Filter mats are removed, dried and counted in a Wallac Betaplate counter. Concentration-response curves of the % inhibition of specific binding and log concentration by test compounds was used to determine the IC50 for each compound and the Ki value calculated based on the Cheng-Prusof equation (Ki=IC50/(1+(L/Kd)), where L is the concentration of the radioligand used in the binding assay and the Kd is based on previous saturation studies with the radioligand."}, "5-HT2c receptor": {"tested_on": "5-HT2c receptor", "assay": "Functional assay (FLIPR calcium, Fluo 4-AM) in 5-HT2c expressed cells", "assay_type": "cell-based", "conditions": "at 10 μM; 5-HT2c expressed NIH 3T3 cells", "procedure": "(§1) Swiss 3T3 cells expressing r-5HT2C, r-5HT2A, h-5HT2C or h-5HT2A receptors are seeded at a density of 12,500 cells/well in 384 well black/clear collagen-coated plates. Forty eight (48) hrs later the cells are loaded with the calcium sensitive dye, Fluo 4-AM (4 μM dissolved in DMSO containing pluronic acid) in serum free DMEM in the presence of probenicid (2.5 mM) for 75 minutes at 37° C. in a CO2 incubator. Unincorporated dye is removed by washing 3 times with a HEPES-buffered saline containing probenicid (2.5 mM) using a Skatron™ cell washer (final volume 30 μL).\n(§2) Plates are added to a fluorometric imaging plate reader (FLIPR 384 available from Molecular Devices Corporation) individually and fluorescence measurements are taken every 2 seconds over an 85 seconds period. Test compound additions are made simultaneously to all 384 wells after 20 seconds of baseline recording. Concentration-response curves are generated using Graphpad Prism™ (available from GraphPad Software, Inc., San Diego, Calif.) and agonist efficacies are generated as % of the response to 10 μM 5-HT (considered as 100%). Estimation of antagonist potencies (functional Kis) are generated by measuring inhibition of the test compound response to 5-HT (10 nM for 5-HT2C and 50 nM for 5-HT2A) and applying the Cheng Prusoff equation.\nThe functional data for the compounds listed in the Examples above utilizing the 5-HT2c expressed NIH 3T3 cells is summarized below."}, "5-HT2a receptor": {"tested_on": "5-HT2a receptor", "assay": "Functional assay (FLIPR calcium, Fluo 4-AM) in 5-HT2a expressed cells", "assay_type": "cell-based", "conditions": "5-HT2a expressed NIH 3T3 cells", "procedure": "as §1, §2\nThe functional data for the compounds listed in the Examples above utilizing the 5-HT2a expressed NIH 3T3 cells is summarized below."}}}
{"smiles": "C[C@@H]1CN(c2ccnc(OCc3cccc(Cl)c3)n2)C[C@H](C)N1", "note": "[Example 1-NN, 2-(3-Chloro-benzyloxy)-4-[(3R,5S)-dimethyl-piperazin-1-yl]-pyrimidine]", "values": [{"measurement": "Ki", "setting": "human 5HT2c receptor", "result": "> 500", "unit": "nM"}, {"measurement": "5HT2a binding activity", "setting": "rat 5HT2A receptor", "result": "no binding activity"}, {"measurement": "5-HT2c functional activity", "setting": "5-HT2c receptor", "result": "no 5-HT2c functional activity"}, {"measurement": "5-HT2a functional activity", "setting": "5-HT2a receptor; at 10 μM", "result": "no functional activity"}]}
{"smiles": "Cl.c1ccc(COc2nccc(N3CCNCC3)n2)nc1", "note": "[Example 5-B, 4-Piperazin-1-yl-2-(pyridin-2-ylmethoxy)-pyrimidine, hydrochloride]", "values": [{"measurement": "Ki", "setting": "human 5HT2c receptor", "result": "> 500", "unit": "nM"}, {"measurement": "functional mode at 5-HT2a (partial agonist / full antagonist)", "setting": "5-HT2a receptor", "result": "full antagonists"}]}
{"smiles": "Cc1cccc(COc2nccc(N3CCNCC3)n2)n1.Cl", "note": "[Example 5-C, 2-(6-Methyl-pyridin-2-ylmethoxy)-4-piperazin-1-yl-pyrimidine, hydrochloride]", "values": [{"measurement": "Ki", "setting": "human 5HT2c receptor", "result": "> 500", "unit": "nM"}, {"measurement": "functional mode at 5-HT2a (partial agonist / full antagonist)", "setting": "5-HT2a receptor", "result": "full antagonists"}]}
